Laboratory results: patent US10919941B2, “Functional lipid constructs” (KODE BIOTECH LIMITED, priority 2007, dated 2021)

Test system: CSL monoclonal anti-A
Assay: BioVue serology of RBCs modified with Atri-lipid constructs against anti-A
Format: cell-based
Parameters: key: 0 or ‘−’ no agglutination; 0 or ‘−’ no agglutination; 1+ or 3=very weak agglutination; 1+ or 3=very weak agglutination; 2+ or 5=weak agglutination; 2+ or 5=weak agglutination; 3+ or 8=moderate strong agglutination; 3+ or 8=moderate strong agglutination; 4+ or 10/12=strong agglutination; 4+ or 10/12=strong agglutination; 4+ or 10/12=strong agglutination
Procedure: To test the hypothesis solutions of four different trisaccharide (Atri)-lipid constructs were prepared as 50 μM, 10 μM and 5 μM solutions in Celpresol™. Modified red blood cells were then prepared by contacting 0.6 mls (pcv) of washed RBCs with 0.6 mls of the relevant solution. The mixtures were incubated at 37° C. for 2 hours and then washed 3 times to provide a modified cell suspension.
The modified cell suspensions were prepared in 0.8% in Celpresol LISS™ suitable for BioVue serology cards. A volume of 0.05 mls of CSL monoclonal anti-A (026129801) followed by 0.05 mls of modified cell suspension was applied to each card. Reactions were recorded following centrifugation in a BioVue cassette centrifuge (Table 29).
There was no significant gain with CMG(2) compared with CMG(4). There was a minor, but not significant change for MCMG (2).

## Adipate
Construct 5 μM
  Serological result, anti-A Neat: 8
  Serological result, reciprocal of dilution of anti-A 2: 8
  Serological result, reciprocal of dilution of anti-A 4: 5
  Serological result, reciprocal of dilution of anti-A 8: 3
Construct 10 μM
  Serological result, anti-A Neat: 10
  Serological result, reciprocal of dilution of anti-A 2: 10
  Serological result, reciprocal of dilution of anti-A 4: 10
  Serological result, reciprocal of dilution of anti-A 8: 8
  Serological result, reciprocal of dilution of anti-A 16: 8
  Serological result, reciprocal of dilution of anti-A 32: 8
  Serological result, reciprocal of dilution of anti-A 64: 8
  Serological result, reciprocal of dilution of anti-A 128: 3
Construct 50 μM
  Serological result, anti-A Neat: 12
  Serological result, reciprocal of dilution of anti-A 2: 12
  Serological result, reciprocal of dilution of anti-A 4: 12
  Serological result, reciprocal of dilution of anti-A 8: 12
  Serological result, reciprocal of dilution of anti-A 16: 12
  Serological result, reciprocal of dilution of anti-A 32: 12
  Serological result, reciprocal of dilution of anti-A 64: 10
  Serological result, reciprocal of dilution of anti-A 128: 8
  Serological result, reciprocal of dilution of anti-A 256: 8
  Serological result, reciprocal of dilution of anti-A 512: 3
